In PubChem BioAssay AID1963958 (Molecular Pharmacology Branch, DTP, NCI, 2024):
pIC50: −log10 of the molar value. Each block holds one molecule with its values, some of them ahead of it.

System: MDA-MB-231 multicell spheroids, viability
Test: Anticancer human tumor MDA-MB-231 cell line growth inhibition [PI3K];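 also: spheroids exposed to agents for seven days before reading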;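 as to viability, T/C: percent of vehicle control luminescence with DMSO treated spheroids as 100%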
Conditions: for pIC50: curve of first compound; for viability, T/C: stronger effect = lower value
In short: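 Viability of mixed-cell spheroids was determined after exposure to pairwise combinations, one partner being inavolisib, alpelisib, duvelisib or copanlisib. Highest tested concentration matched clinical Cmax where known and 10 microM where not, descending in half-log steps.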

[1] = second compound 0.0316 µM, first compound 0.0316 µM
[2] = second compound 0.0316 µM, first compound 0.1 µM
[3] = second compound 0.0316 µM, first compound 0.316 µM
[4] = second compound 0.0316 µM, first compound 1 µM
[5] = second compound 0.0316 µM, first compound 3.16 µM
[6] = second compound 0.0316 µM, first compound 10 µM
[7] = second compound 0.1 µM, first compound 0.0316 µM
[8] = second compound 0.1 µM, first compound 0.1 µM
[9] = second compound 0.1 µM, first compound 0.316 µM
[10] = second compound 0.1 µM, first compound 1 µM
[11] = second compound 0.1 µM, first compound 3.16 µM
[12] = second compound 0.1 µM, first compound 10 µM
[13] = second compound 0.316 µM, first compound 0.0316 µM
[14] = second compound 0.316 µM, first compound 0.1 µM
[15] = second compound 0.316 µM, first compound 0.316 µM
[16] = second compound 0.316 µM, first compound 1 µM
[17] = second compound 0.316 µM, first compound 3.16 µM
[18] = second compound 0.316 µM, first compound 10 µM
[19] = second compound 1 µM, first compound 0.0316 µM
[20] = second compound 1 µM, first compound 0.1 µM
[21] = second compound 1 µM, first compound 0.316 µM
[22] = second compound 1 µM, first compound 1 µM
[23] = second compound 1 µM, first compound 3.16 µM
[24] = second compound 1 µM, first compound 10 µM
[25] = second compound 3.16 µM, first compound 0.0316 µM
[26] = second compound 3.16 µM, first compound 0.1 µM
[27] = second compound 3.16 µM, first compound 0.316 µM
[28] = second compound 3.16 µM, first compound 1 µM
[29] = second compound 3.16 µM, first compound 3.16 µM
[30] = second compound 3.16 µM, first compound 10 µM
[31] = second compound 10 µM, first compound 0.0316 µM
[32] = second compound 10 µM, first compound 0.1 µM
[33] = second compound 10 µM, first compound 0.316 µM
[34] = second compound 10 µM, first compound 1 µM
[35] = second compound 10 µM, first compound 3.16 µM
[36] = second compound 10 µM, first compound 10 µM

pIC50 (second compound 0.0316 µM): 5.11 | pIC50 (second compound 0.1 µM): 5.16 | pIC50 (second compound 0.316 µM): 5.10 | pIC50 (second compound 1 µM): 5.21 | pIC50 (second compound 3.16 µM): 5.28 | pIC50 (second compound 10 µM): 5.48
Structure (SMILES): CC1(C)CCC(CN2CCN(c3ccc(C(=O)NS(=O)(=O)c4ccc(NCC5CCOCC5)c([N+](=O)[O-])c4)c(Oc4cnc5[nH]ccc5c4)c3)CC2)=C(c2ccc(Cl)cc2)C1 + CC(Nc1ncnc2nc[nH]c12)c1cc2cccc(Cl)c2c(=O)n1-c1ccccc1
viability, T/C [1]: 104% | viability, T/C [2]: 96.9% | viability, T/C [3]: 110% | viability, T/C [4]: 102% | viability, T/C [5]: 112% | viability, T/C [6]: 33.9% | viability, T/C [7]: 92.5% | viability, T/C [8]: 92.1% | viability, T/C [9]: 100% | viability, T/C [10]: 107% | viability, T/C [11]: 103% | viability, T/C [12]: 26.6% | viability, T/C [13]: 90.5% | viability, T/C [14]: 99% | viability, T/C [15]: 105% | viability, T/C [16]: 98.2% | viability, T/C [17]: 108% | viability, T/C [18]: 37.1% | viability, T/C [19]: 85.9% | viability, T/C [20]: 86.6% | viability, T/C [21]: 75.6% | viability, T/C [22]: 92.4% | viability, T/C [23]: 91.8% | viability, T/C [24]: 23.7% | viability, T/C [25]: 70% | viability, T/C [26]: 64.7% | viability, T/C [27]: 65.3% | viability, T/C [28]: 66.6% | viability, T/C [29]: 72.2% | viability, T/C [30]: 27.7% | viability, T/C [31]: 50.6% | viability, T/C [32]: 50.4% | viability, T/C [33]: 49.6% | viability, T/C [34]: 50.5% | viability, T/C [35]: 53.7% | viability, T/C [36]: 28.4%

pIC50 (second compound 0.0316 µM): 5.25 | pIC50 (second compound 0.1 µM): 5.29 | pIC50 (second compound 0.316 µM): 5.33 | pIC50 (second compound 1 µM): 5.42 | pIC50 (second compound 3.16 µM): 5.71 | pIC50 (second compound 10 µM): 6.43
Structure (SMILES): CCCS(=O)(=O)Nc1ccc(F)c(C(=O)c2c[nH]c3ncc(-c4ccc(Cl)cc4)cc23)c1F + CC(Nc1ncnc2nc[nH]c12)c1cc2cccc(Cl)c2c(=O)n1-c1ccccc1
viability, T/C [1]: 114% | viability, T/C [2]: 109% | viability, T/C [3]: 102% | viability, T/C [4]: 89.8% | viability, T/C [5]: 66.8% | viability, T/C [6]: 32.7% | viability, T/C [7]: 113% | viability, T/C [8]: 108% | viability, T/C [9]: 96.5% | viability, T/C [10]: 82.8% | viability, T/C [11]: 61.2% | viability, T/C [12]: 34.5% | viability, T/C [13]: 85.8% | viability, T/C [14]: 95.3% | viability, T/C [15]: 99.2% | viability, T/C [16]: 79.4% | viability, T/C [17]: 60.1% | viability, T/C [18]: 32.3% | viability, T/C [19]: 95.5% | viability, T/C [20]: 82.9% | viability, T/C [21]: 77.4% | viability, T/C [22]: 71.9% | viability, T/C [23]: 54.4% | viability, T/C [24]: 30.5% | viability, T/C [25]: 68.4% | viability, T/C [26]: 70.9% | viability, T/C [27]: 67.2% | viability, T/C [28]: 56.5% | viability, T/C [29]: 44.6% | viability, T/C [30]: 26.4% | viability, T/C [31]: 52.8% | viability, T/C [32]: 55% | viability, T/C [33]: 52.1% | viability, T/C [34]: 43.3% | viability, T/C [35]: 37.7% | viability, T/C [36]: 23%

pIC50 (second compound 0.0316 µM): < 5.00 | pIC50 (second compound 0.1 µM): < 5.00 | pIC50 (second compound 0.316 µM): < 5.00 | pIC50 (second compound 1 µM): < 5.00 | pIC50 (second compound 3.16 µM): < 5.00 | pIC50 (second compound 10 µM): 7.05
Structure (SMILES): CNC(=O)c1ccc(N2C(=S)N(c3ccc(C#N)c(C(F)(F)F)c3)C(=O)C2(C)C)cc1F + CC(Nc1ncnc2nc[nH]c12)c1cc2cccc(Cl)c2c(=O)n1-c1ccccc1
viability, T/C [1]: 101% | viability, T/C [2]: 110% | viability, T/C [3]: 102% | viability, T/C [4]: 94% | viability, T/C [5]: 97.5% | viability, T/C [6]: 70.3% | viability, T/C [7]: 93% | viability, T/C [8]: 96% | viability, T/C [9]: 105% | viability, T/C [10]: 101% | viability, T/C [11]: 95.7% | viability, T/C [12]: 79.9% | viability, T/C [13]: 89% | viability, T/C [14]: 96.8% | viability, T/C [15]: 91.1% | viability, T/C [16]: 99.2% | viability, T/C [17]: 85.5% | viability, T/C [18]: 72.9% | viability, T/C [19]: 81.2% | viability, T/C [20]: 84.1% | viability, T/C [21]: 75.4% | viability, T/C [22]: 77.2% | viability, T/C [23]: 76.3% | viability, T/C [24]: 64.1% | viability, T/C [25]: 61.4% | viability, T/C [26]: 59.5% | viability, T/C [27]: 63.1% | viability, T/C [28]: 61.4% | viability, T/C [29]: 62.3% | viability, T/C [30]: 51% | viability, T/C [31]: 49.5% | viability, T/C [32]: 51.6% | viability, T/C [33]: 47.3% | viability, T/C [34]: 49.4% | viability, T/C [35]: 42.3% | viability, T/C [36]: 39.7%
